Measurements reported in patent publication US20090318468A1, “PYRAZOLE COMPOUNDS 436” (AstraZeneca AB, priority 2008, published 2009).

Target: T1, human cytochrome P450 (CYP) 2C19 (Homo sapiens, UniProt P33261)
T1 construct: made in house; host or cells: yeast (microsomal fraction)
Test: Cytochrome P450 Inhibition Assay, CYP 2C19
Type: in vitro ADME
Details: expected IC50 range of known inhibitor (positive control); read-out: IC50 range (μM), CYP 2C19
Protocol: Cytochrome P450 Inhibition Assay
The inhibitory potential (IC50) of test compounds against 5 human cytochrome P450 (CYP) isoforms (1A2, 2C9, 2C19, 3A4 and 2D6) was assessed using an automated fluorescent end point in vitro assay modified from Crespi (Crespi and Stresser, J Pharmacol Toxicol Methods 2000, 44: 325-331). Microsomal subcellular fractions prepared from Yeast cell lines expressing each human CYP isoform were used as an enzyme source in this assay. The activity of the 5 major human CYPs was determined from the biotransformation of a number of coumarin substrates to fluorescent metabolites, in the presence of NADPH. […] Stock solutions of each CYP, with its respective substrate, were prepared in phosphate buffer pH 7.4 (see Table 1) and 178 μl was added to the well of a black solid, flat bottom, 300 μl 96 well microtitre plate (Corning Costar). […] After pre-incubating at 37° C. for 5 min the reactions were started with addition of NADPH (20 μl, concentration shown in Table 1). The final solvent content in each incubation was <=2% (1% from the test compound and a maximum of 1% from the substrate). The appropriate solvent controls and substrate blanks were included in each experiment to assess control activity and identify any inherent fluorescence due to the test compounds. In addition, known inhibitors of each CYP were included as positive controls (see Table 3 for inhibitor concentrations and expected IC50 ranges). The reactions were stopped at defined timepoints (see Table 1) by quenching with 100 μl of solvent (acetonitrile:0.5M Tris buffer 80:20 v/v). The plates were read on a fluorimeter (Spectrafluor Plus) at the appropriate excitation and emission wavelengths (listed in Table 2) and the percent activity, corrected for control, was plotted against the test compound concentration.

T1 sequence (P33261 whole entry): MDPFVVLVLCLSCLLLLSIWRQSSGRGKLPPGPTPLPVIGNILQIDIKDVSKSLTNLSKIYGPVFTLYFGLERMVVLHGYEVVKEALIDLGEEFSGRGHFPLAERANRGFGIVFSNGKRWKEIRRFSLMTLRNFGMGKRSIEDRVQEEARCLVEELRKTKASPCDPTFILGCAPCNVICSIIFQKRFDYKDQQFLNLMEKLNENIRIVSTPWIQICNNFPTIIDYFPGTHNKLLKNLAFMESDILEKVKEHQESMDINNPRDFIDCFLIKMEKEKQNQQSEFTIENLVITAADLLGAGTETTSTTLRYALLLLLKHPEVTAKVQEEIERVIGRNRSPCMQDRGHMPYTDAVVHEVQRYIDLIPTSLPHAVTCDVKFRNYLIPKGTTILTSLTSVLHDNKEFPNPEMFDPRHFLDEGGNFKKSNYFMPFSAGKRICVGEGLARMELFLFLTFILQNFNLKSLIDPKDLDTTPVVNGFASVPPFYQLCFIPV

IC50: 1.5 to 4.6 µM
Structure (SMILES): COc1ccc2[nH]c([S+]([O-])Cc3ncc(C)c(OC)c3C)nc2c1 (stereo not shown) [Omeprazole, reference compound]
